Test results as given in US20060177517A1, “Antiinflammtory agent and antiinflammatory medical material” (priority 2003, published 2006).

Assays:
human neutrophils = test: IL-1β production by human neutrophils treated with GMDP and/or polyphosphoric acid (ELISA); format: cell-based
Description: To confirm the effect of suppressing inflammatory cytokine production with the polyphosphoric acid obtained according to the above production example, an experiment was conducted to observe IL-1β production using human neutrophils. Neutrophils were separated from 25 ml of human blood and then suspended in a Dulbecco's Modified Eagle's Medium. […] Treatment was carried out for maximum of 5 hours at 37° C. […] The IL-1β production amount at each time point was measured using an ELISA Kit.

[1] = tested on: Streptococcus mutans JC2 strain; test: Suppression of intraoral bacteria growth, absorbance at 595 nm; format: cell-based; settings: 24 hours after treatment
Description: A test of suppression of bacterial growth with the polyphosphoric acid obtained according to the above production example was conducted using intraoral bacteria, Streptococcus mutans (S. mutans) and Porphylomonas gingivalis (P gingivalis). The S. mutans JC2 strain was anaerobically cultured at 37° C. using Heart infusion media. For the treated groups, polyphosphoric acid was added to the culture solutions at different concentrations (0%, 0.06%, and 0.5%). For comparison groups, phosphate buffers were added at different concentrations (0%, 0.06%, and 0.5%) to culture solutions. The bacteria were cultured for a maximum of 2 days. […] In the meantime, the P. gingivalis ATCC33277 strain was anaerobically cultured using brain-heart-infusion media at 37° C. for the same time period as employed above by adding polyphosphoric acid at different concentrations (0%, 0.015%, 0.03%, 0.06%, 0.12%, 0.25%, and 0.5%) to culture solutions. Bacterial growth was observed over time by measuring absorbance at 595 nm.

[2] = tested on: periodontal tissue inflammation; test: Suppression of periodontal tissue inflammation in rat artificial periodontal pockets (HE staining); format: in vivo, Wister rats; settings: approx. 0.1 ml of 1% solution injected into gingival crevice every day for 10 days
Description: Male Wister rats (8-week-old; 10 rats in total) were anesthetized, and then the periosteum of the alveolar part of maxillary first molar tooth was stripped. Portions of approximately 2 mm were eliminated from the buccal alveolar apexes of the maxillary first molar tooth and of the maxillary second molar tooth, using a ½ round bar, thereby forming artificial periodontal pockets (gingival crevices). In the case of the treated group (5 rats), approximately 0.1 ml of 1% polyphosphoric acid solution was injected into each gingival crevice using a syringe. Furthermore, in the case of the comparison group (5 rats), only a 1% phosphate buffer was injected. This injection procedure was carried out every day for 10 days from the day following the operation for the preparation of gingival crevices. Rats that had been treated for a certain time period were euthanized under inhalation anesthesia (ether). The maxilla bones were amputated, and then the tissues were fixed for 1 day by immersion using 10% neutral buffered formalin (pH 7.4). Subsequently, the resultants were subjected to acid demineralization at room temperature for approximately 2 days. After completion of demineralization, the samples were trimmed by excision at the second molar tooth, and then paraffin-embedded with their cut surfaces positioned downward. […]

[3] = tested on: P. gingivalis ATCC33277 strain; test: Suppression of intraoral bacteria growth, absorbance at 595 nm; format: cell-based, Porphylomonas gingivalis; settings: polyphosphoric acid concentration of 0.01%, 48 hours after treatment
Description: A test of suppression of bacterial growth with the polyphosphoric acid obtained according to the above production example was conducted using intraoral bacteria, Streptococcus mutans (S. mutans) and Porphylomonas gingivalis (P gingivalis). The S. mutans JC2 strain was anaerobically cultured at 37° C. using Heart infusion media. For the treated groups, polyphosphoric acid was added to the culture solutions at different concentrations (0%, 0.06%, and 0.5%). For comparison groups, phosphate buffers were added at different concentrations (0%, 0.06%, and 0.5%) to culture solutions. […] Bacterial growth was observed over time by measuring absorbance at 595 nm.

[4] = tested on: inflammation at wound site; test: Suppression of inflammation at wound site, rat dorsal wound model (HE staining); format: in vivo, Wistar rat; settings: 1% solution locally injected 5 days a week
Text: The dorsum of each 6-week-old male Wistar rat was shaved under ether anesthesia, and then a 20-mm incision was made along the long axis of the body with a depth reaching to the fascia. Both ends of the center of the wound were stitched to the fascia using a piece of string so as to produce a 5-mm-wide spindle-shaped wound model (FIG. 4). A 1% polyphosphoric acid solution was locally injected 5 days a week into each wound of the rats in the treated group. A 1% phosphate buffer was locally injected 5 days a week into each wound of the rats in the comparison group. The rats were euthanized on days 3 and 7. Tissue located in the area extending from 5 mm to the left of and 5 mm to the right of the wound center was obtained by excising skin on the fascia as shown in FIG. 4. The tissues were subjected to HE staining and then histopathological observance was carried out.

With `CC(=O)NC1C(OC2C(CO)OC(O)C(NC(C)=O)C2OC(C)C(=O)NC(C)C(=O)NC(CCC(=O)O)C(N)=O)OC(CO)C(O)C1O` [GMDP, N-Acetyl-D-Glucosaminyl-β(1-4)-N-acetylmuramyl-L-alanyl-D-isoglutamine, reference compound] the IL-1β production amount (human neutrophils; 30 μg GMDP alone, up to 5 hours) was “increased with time”.

For `O=P(O)(O)O` [phosphoric acid, reference compound], the “bacterial growth of S. mutans” value ([1]; phosphoric acid concentration of 0.5%) was “no large changes”.

polyphosphoric acid was tested, and the IL-1β production amount (human neutrophils; GMDP plus polyphosphoric acids (0.2, 1, 5 mM), 5 hours after treatment) was “decreased depending on the concentrations of the polyphosphoric acids”, the IL-1β production amount (human neutrophils; GMDP plus polyphosphoric acids (0.2, 1, 5 mM), until 3 hours after treatment, versus GMDP alone) was “suppressed to a level similar to that of the comparison group” and the IL-1β production amount (human neutrophils; polyphosphoric acids alone (0.2, 1, 5 mM), no GMDP) was “almost the same at any polyphosphoric acid concentration as that in the case of the comparison group”. The “inflammatory cells in the peripheries of the treated sites” value [2] was “Almost no inflammatory cells were observed”, the “bacterial growth of S. mutans” value ([1]; polyphosphoric acid concentration of 0.06%) was “significantly suppressed bacterial growth” and the “bacterial growth of P. gingivalis” value [3] was “significantly suppressed bacterial growth”. The “extension of the epithelia toward the centers of the wounds” value ([4]; day 3 after operation) was “significant extension”, the “infiltration by inflammatory cells at the wound” value ([4]; day 3 after operation) was “infiltration by inflammatory cells decreased” and the “epithelialization of the wound surfaces” value ([4]; day 7 after operation) was “almost completely epithelialized”. For the same molecule, the “extension of the epithelia at the cut ends of the wounds, compared with the comparison group” value ([4]; day 7 after operation) was “promoted” and the “inflammation at the centers of the wounds” value ([4]; day 7 after operation) was “inflammation remained slight and partial on the upper parts”.
